Reference: patent publication EP0036357A1, “Antalgic and antiagregant cetonic derivatives of 5,6-diaryl-1,2,4-triazines, usable in the treatment of migraine” (PIERRE FABRE S.A., priority 1980, dated 1981)
Like-named read-outs stand apart in the source and are kept apart here.

Key:
[1] = Qualitative solubility in solvents; type: physicochemical; settings: for Insoluble dans: solvents in which the compound is insoluble; for Soluble dans: solvents in which the compound is soluble
[2] = test system: contorsions à la phényl benzoquinone; assay: Phenylbenzoquinone writhing test (Siegmund), analgesic activity; type: in vivo, souris; settings: po, 0.5 h; dose giving 50 % decrease of writhes; per os, mouse, 30 minutes before i.p. phenylbenzoquinone; read-out: DE50 (the source's name)
Procedure: L'activité sur le test des contorsions à la phényl benzoquinone (selon SIEGMUND et Coll. - J. Pharm. Exptl. Ther. 1957, 119, 453) […] administration du produit per os; la dose est exprimée en mg/kg chez la souris 30 minutes avant l'injection […] sont exprimés en pourcentage de variation du nombre de contorsions; pour les molécules les plus actives, nous avons déterminé la dose qui provoque 50 % de diminution des contorsions DE50. Dans le tableau ci-dessous nous avons répertorié les molécules dont l'activité est supérieure ou é[…] (DE50 ≃ 40).

[3] = Acute toxicity (LD50) in mice, Miller and Tainter method; settings: in vivo, mouse about 20 g
Excerpt: L'étude de la toxicité a été effectuée chez la souris conventionnelle pesant environ 20 grammes.
Les substances ont été administrées par voie orale et intrapéritonéale. Les doses létales 50 sont exprimées en mg/kg et ont été calculées selon la méthode de MILLER et TAINTER, Proc. Soc. Exper. Biol. Med. 1944, 57, 261.
A titre d'exemple dans le tableau ci-dessous figurent quelques valeurs de doses toxiques provoquant 50 % de mortalité.

[4] = Tolerance on repeated administration; type: in vivo
[5] = ip, intraperitoneal route, read-out: DL50 voie I.P.
[6] = oral route, read-out: DL50 voie orale

| Structure (SMILES) | Insoluble dans [1] | Soluble dans [1] | ED50 [2] [mg/kg] | LD50 [3, 5] [mg/kg] | LD50 [3, 6] [mg/kg] | tolérées par administration répétée [4] |
| --- | --- | --- | --- | --- | --- | --- |
| COc1ccc(-c2nc(=O)n(CC(C)=O)nc2-c2ccc(OC)cc2)cc1 [ST 753, Oxo-3 acétonyl-2 di(paraméthoxyphényl) 5-6 as triazine] | l'eau, les acides et bases dilués, l'éther | l'éthanol, le benzène, le chlorure de méthylène et le chloroforme | 15 | > 500 | > 1500 | les mieux tolérées |
| COc1ccc(-c2nc(=O)n(C(C)C(C)=O)nc2-c2ccc(OC)cc2)cc1 (stereo not drawn) [ST 765, Oxo-3 α méthylacétonyl-2 di (paraméthoxyphényl) 5-6 as triazine] | l'eau, les acides et bases dilués, et l'éther | l'éthanol, le benzène, le chlorure de méthylène et le chloroforme | 10 | > 1000 | > 2000 | les mieux tolérées |
| CC(=O)C(C)n1nc(-c2ccc(N(C)C)cc2)c(-c2ccc(N(C)C)cc2)nc1=O (stereo not shown) [ST 802, Oxo-3αméthylacétonyl-2 di(paradiméthylaminophényl) 5-6 as triazine] | l'eau, les bases diluées et l'éther | les acides dilués aqueux, l'éthanol, le benzène, le chlorure de méthylène et le chloroforme | 5 | – | > 1500 | – |
| CN(C)c1ccc(-c2nc(=O)n(CC(=O)c3ccccc3)nc2-c2ccc(N(C)C)cc2)cc1 [ST 813, Oxo-3 acétophényl-2 di (paradiméthylaminophényl) 5-6 as triazine] | l'eau, les bases diluées, le benzène, l'éthanol et l'éther | les acides dilués aqueux, le chlorure de méthylène et le chloroforme | – | ~750 | > 1000 | – |
| COc1ccc(-c2nc(=O)n(CC(=O)c3ccc(O)c(O)c3)nc2-c2ccc(OC)cc2)cc1 [ST 827, Oxo-3 (3,4 dihydroxyphénacyl)-2 di(paraméthoxyphényl) 5-6 as triazine] | l'eau, les acides dilués, le benzène, le chlorure de méthylène et l'éther | les bases diluées et l'éthanol | – | – | > 1000 | – |
| CN(C)c1ccc(-c2nc(=O)n(CC(=O)c3ccc(O)c(O)c3)nc2-c2ccc(N(C)C)cc2)cc1 [ST 842, Oxo-3 (3,4 dihydroxyphénacyl)-2 di(paradiméthylaminophényl) 5-6 as triazine] | l'eau, le benzène, le chlorure de méthylène, l'éther | les acides et les basés dilués et l'éthanol | – | – | > 1000 | – |
| COc1ccc(-c2nc(=O)n(CC(=O)c3ccc(Br)cc3)nc2-c2ccc(OC)cc2)cc1 [ST 844, Oxo-3 (p-bromophénacyl)-2 di(paraméthoxyphényl) 5-6 as triazine] | l'eau, les acides et bases dilués | l'éthanol, le benzène, le chlorure de méthylène, le chloroforme | – | ~800 | > 2000 | – |
| COc1ccc(-c2nc(=O)n(C(C(=O)c3ccccc3)c3ccccc3)nc2-c2ccc(OC)cc2)cc1 (stereo not drawn) [ST 908, Oxo-3 (α phénylacétophénone)-2 di (paraméthoxyphényl)-5-6 as triazine] | l'eau, les acides et les bases dilués | l'éthanol, le chlorure de méthylène, le chloroforme et l'éther | – | > 500 | > 1000 | – |
| CC(=O)Cn1nc(-c2ccc(N(C)C)cc2)c(-c2ccc(N(C)C)cc2)nc1=O [ST 910, Oxo-3 acétonyl-2 di(paradiméthylaminophényl) 5-6 as triazine] | l'eau et les bases diluées, le benzène et l'éther | les acides dilués, l'éthanol, le chlorure de méthylène et le chloroforme | 4 | – | > 1500 | – |
| CN(C)c1ccc(-c2nc(=O)n(C(C(=O)c3ccccc3)c3ccccc3)nc2-c2ccc(N(C)C)cc2)cc1 (stereo not drawn) [ST 911, Oxo-3 (α phénylacétophénone)-2 di(paradiméthylaminophényl) 5-6 as triazine] | l'eau, les bases diluées, l'éthanol et l'éther | les acides dilués, le benzène, le chlorure de méthylène et le chloroforme | – | – | > 1000 | – |
| CC(=O)CCCn1nc(-c2ccc(N(C)C)cc2)c(-c2ccc(N(C)C)cc2)nc1=O [ST 924, Oxo-3 (δ propylméthylcétone)-2 di(p-diméthylaminophényl)-5-6 as triazine] | – | – | 7 | – | > 1500 | – |
| CCC(=O)CCn1nc(-c2ccc(N(C)C)cc2)c(-c2ccc(N(C)C)cc2)nc1=O [ST 925, Oxo-3 ( δ diéthylcétone)-2 di(paradiméthyaminophényl) 5, 6 as triazine] | l'eau, les bases diluées et l'éther | les acides dilués, l'éthanol, le benzène, le chlorure de méthylène et le chloroforme | 5 | > 500 | > 1000 | – |
| CCC(=O)CCn1nc(-c2ccc(OC)cc2)c(-c2ccc(OC)cc2)nc1=O [ST 966, Oxo-3 (δ diéthylcétone)-2 di(paraméthoxyphényl)-5, 6 as triazine] | l'eau, les bases et les acides dilués et l'éther | l'éthanol, le benzène, le chlorure de méthylène et le chloroforme | – | – | > 2000 | – |
| O=C(OCC(O)CO)c1ccccc1Nc1ccnc2cc(Cl)ccc12 (stereo not shown) [glafénine, reference compound] | – | – | ~40 | – | – | – |
